Measurements from publication PMC3058535 (International Journal of Nanomedicine, 2011).

Molecular target: integrin αvβ3 (Homo sapiens, UniProt P05106+P06756)
Test: Competitive ELISA vs NS–RGDfK
Type: binding
Conditions: NS–RGDfK 0.5 OD; starting 50 μM

Row | Compound | competition with NS–RGDfK for binding to integrin αvβ3
1 | CC(C)(CN)CNC(=O)NCCS(=O)(=O)N[C@@H](CNC(=O)c1ccc(OCCNC2=NCCCN2)cc1)C(=O)O.Cl [IAC, 4-[2-(3,4,5,6-tetrahydropyrimidin-2-ylamino)-ethyloxy]benzoyl-2-(S)-[N-(3-aminoneopenta-1-carbamyl)]-aminoethylsulfonylamino-h-alanine hydrochloride] | did compete with NS–RGDfK for binding to the integrin
2 | cyclo-(Arg-Ala-Asp- D-Phe-Lys) (head to tail) [RADfK] | did not have any detectable competition with NS–RGDfK
3 | N=C(N)NCCC[C@@H]1NC(=O)[C@H](CCCCN)NC(=O)[C@@H](Cc2ccccc2)NC(=O)[C@H](CC(=O)O)NC(=O)CNC1=O [RGDfK, cyclo(Arg-Gly-Asp-D-Phe-Lys)] | did compete with NS–RGDfK for binding to the integrin
